# In article PMC3439875 (Nucleic Acids Research, 2012):
# Biological target: variola topoisomerase (Variola virus, UniProt P32989)
# Assay type: biochemical
# Sequence of variola topoisomerase (P32989 whole entry, looked up): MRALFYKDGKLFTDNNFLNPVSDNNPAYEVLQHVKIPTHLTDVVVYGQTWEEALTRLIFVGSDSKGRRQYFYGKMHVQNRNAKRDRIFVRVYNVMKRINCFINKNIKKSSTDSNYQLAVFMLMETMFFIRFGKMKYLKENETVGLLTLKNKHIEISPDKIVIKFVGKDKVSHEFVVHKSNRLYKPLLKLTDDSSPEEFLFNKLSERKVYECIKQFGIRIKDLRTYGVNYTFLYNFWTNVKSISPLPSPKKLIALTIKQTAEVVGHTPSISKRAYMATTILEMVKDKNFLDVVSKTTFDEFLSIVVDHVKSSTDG
smiles,measurement,value
CCOC(=O)c1c(O)c2cc(-c3cccc(OC)n3)cnc2n(O)c1=O [Compound 7],Inhibition of variola topoisomerase activity,no inhibitory activity
